Test results taken from PubChem BioAssay AID248 (DTP/NCI, 2004).
Values joined by “and” are separate entries in the source; they are usually repeats but may differ in a detail not shown here. Identical values can stand only once. Inconclusive results and toxic doses are left out. Cut-off read from the data, not from the text of the source: active = T/C of 150% or more; inactive = T/C below 125%.

Tested on: L1210 leukemia ip in BDF1 mice, survival T/C
Experiment: NCI In Vivo Anticancer Drug Screen. Data for tumor model L1210 Leukemia (intraperitoneal) in B6D2F1 (BDF1) mice
Settings: endpoint: mean survival time, higher = longer survival
How it was run: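 Each compound was tested against a transplantable tumor grown in mice. The endpoint was survival, with treated animals benchmarked against vehicle controls as a simple ratio.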

[1] = dose: 100.0 mg/kg/injection, schedule: Q01DX009 (ip), vehicle: saline with Tween-80
[2] = dose: 100.0 mg/kg/injection, schedule: Q04DX003 (ip), vehicle: saline
[3] = dose: 200.0 mg/kg/injection, schedule: Q01DX009 (ip), vehicle: saline with Tween-80
[4] = dose: 200.0 mg/kg/injection, schedule: Q04DX003 (ip), vehicle: saline
[5] = dose: 400.0 mg/kg/injection, schedule: Q01DX009 (ip), vehicle: saline with Tween-80
[6] = dose: 400.0 mg/kg/injection, schedule: Q04DX003 (ip), vehicle: saline
[7] = dose: 100.0 mg/kg/injection, schedule: Q01DX009 (ip), vehicle: Klucel (hydroxypropylcellulose) (HPC)
[8] = dose: 100.0 mg/kg/injection, schedule: Q04DX003 (ip), vehicle: Klucel (hydroxypropylcellulose) (HPC)
[9] = dose: 200.0 mg/kg/injection, schedule: Q01DX009 (ip), vehicle: Klucel (hydroxypropylcellulose) (HPC)
[10] = dose: 200.0 mg/kg/injection, schedule: Q04DX003 (ip), vehicle: Klucel (hydroxypropylcellulose) (HPC)
[11] = dose: 400.0 mg/kg/injection, schedule: Q04DX003 (ip), vehicle: Klucel (hydroxypropylcellulose) (HPC)
[12] = dose: 100.0 mg/kg/injection, schedule: Q01DX009 (ip), vehicle: saline
[13] = dose: 100.0 mg/kg/injection, schedule: Q04DX003 (ip), vehicle: saline with Tween-80
[14] = dose: 200.0 mg/kg/injection, schedule: Q01DX009 (ip), vehicle: saline
[15] = dose: 200.0 mg/kg/injection, schedule: Q04DX003 (ip), vehicle: saline with Tween-80
[16] = dose: 400.0 mg/kg/injection, schedule: Q01DX009 (ip), vehicle: saline
[17] = dose: 400.0 mg/kg/injection, schedule: Q04DX003 (ip), vehicle: saline with Tween-80
[18] = dose: 100.0 mg/kg/injection, schedule: Q01DX001 (ip), vehicle: Klucel (hydroxypropylcellulose) (HPC)
[19] = dose: 200.0 mg/kg/injection, schedule: Q01DX001 (ip), vehicle: Klucel (hydroxypropylcellulose) (HPC)
[20] = dose: 400.0 mg/kg/injection, schedule: Q01DX001 (ip), vehicle: Klucel (hydroxypropylcellulose) (HPC)
[21] = dose: 100.0 mg/kg/injection, schedule: Q01DX001 (ip), vehicle: carboxymethylcellulose (CMC)
[22] = dose: 200.0 mg/kg/injection, schedule: Q01DX001 (ip), vehicle: carboxymethylcellulose (CMC)
[23] = dose: 400.0 mg/kg/injection, schedule: Q01DX001 (ip), vehicle: carboxymethylcellulose (CMC)

Measured: T/C

C1CCCC(=NN=C2CCCCCCC2)CCC1
inactive: [1] 89 % of control | [2] 95 % of control | [3] 93 % of control | [4] 89 % of control | [5] 89 % of control | [6] 95 % of control

O=C(Nc1ccc(S(=O)(=O)F)cc1)/C(=C\c1ccc([N+](=O)[O-])cc1)c1cccc(Cl)c1
inactive: dose: 100.0 mg/kg/injection, schedule: Q04DX002 (ip), vehicle: Klucel (hydroxypropylcellulose) (HPC) 94 % of control | dose: 200.0 mg/kg/injection, schedule: Q04DX002 (ip), vehicle: Klucel (hydroxypropylcellulose) (HPC) 105 % of control | dose: 400.0 mg/kg/injection, schedule: Q04DX002 (ip), vehicle: Klucel (hydroxypropylcellulose) (HPC) 105 % of control

CC(=O)OCC1OC(S[As](C)C)C(OC(C)=O)C(OC(C)=O)C1OC(C)=O (stereo not drawn)
inactive: [7] 101 % of control | [8] 101 % of control | [9] 103 % of control | [10] 100 % of control | [11] 100 % of control

O=C1NC(=O)c2cc([N+](=O)[O-])cc3cccc1c23
inactive: dose: 100.0 mg/kg/injection, schedule: Q01DX001 (ip), vehicle: saline 94 % of control | dose: 100.0 mg/kg/injection, schedule: Q01DX009 (ip), vehicle: saline sonified 90 % of control | [8] 97 % of control | dose: 200.0 mg/kg/injection, schedule: Q01DX001 (ip), vehicle: saline 97 % of control | dose: 200.0 mg/kg/injection, schedule: Q01DX009 (ip), vehicle: saline sonified 95 % of control | [10] 87 % of control | dose: 400.0 mg/kg/injection, schedule: Q01DX001 (ip), vehicle: saline 90 % of control | dose: 400.0 mg/kg/injection, schedule: Q01DX009 (ip), vehicle: saline sonified 88 % of control | [11] 86 % of control

COC(=O)CC(OC)OC
inactive: [1] 107 % of control | [12] 103 % of control | [13] 89 % of control | [3] 100 % of control | [14] 103 % of control | [15] 102 % of control | [5] 97 % of control | [16] 105 % of control | [17] 101 % of control

O=C(Nc1cccc(Cl)c1Cl)OCCN1CCNC1=S
inactive: [12] 94 % of control | [14] 96 % of control | [16] 102 % of control

CCN(CC)CCOc1ccc(C(=O)/C(=C/c2ccc(OC)cc2)c2ccccc2)cc1
inactive: dose: 100.0 mg/kg/injection, schedule: Q04DX003 (sc), vehicle: olive oil, sesame oil, peanut oil 100 % of control | dose: 200.0 mg/kg/injection, schedule: Q04DX003 (sc), vehicle: olive oil, sesame oil, peanut oil 96 % of control | dose: 400.0 mg/kg/injection, schedule: Q04DX003 (sc), vehicle: olive oil, sesame oil, peanut oil 108 % of control

CC(=O)COc1ccccc1
inactive: [7] 108 % of control | [8] 100 % of control | [9] 110 % of control | [10] 97 % of control | dose: 400.0 mg/kg/injection, schedule: Q01DX009 (ip), vehicle: Klucel (hydroxypropylcellulose) (HPC) 108 % of control | [11] 95 % of control

O=C1c2ccccc2-c2c3c(cc4ccnc1c24)OCO3
inactive: [18] 93 % of control | [19] 96 % of control | [20] 100 % of control

CC1(C)OCC(C2OC(C)(C)OC2C2COC(C)(C)O2)O1 (stereo not drawn)
inactive: dose: 87.5 mg/kg/injection, schedule: Q04DX002 (ip), vehicle: saline 100 % of control | dose: 175.0 mg/kg/injection, schedule: Q04DX002 (ip), vehicle: saline 97 % of control | dose: 350.0 mg/kg/injection, schedule: Q04DX002 (ip), vehicle: saline 93 % of control

O=S(CCCl)c1ccccc1 (stereo not drawn)
inactive: [8] 98 % of control | [10] 98 % of control | [11] 98 % of control

Cc1c(C(N)=O)sc2ccccc12
inactive: [21] 89 % of control | [22] 107 % of control | [23] 94 % of control

O=C(CCl)Nc1c(Cl)cc(Cl)cc1Cl
inactive: dose: 50.0 mg/kg/injection, schedule: Q04DX003 (ip), vehicle: Klucel (hydroxypropylcellulose) (HPC) 97 % of control | [18] 103 % of control | [8] 90 % of control | [19] 98 % of control | [10] 93 % of control | [20] 103 % of control

CCCCC(CC)C1NC(=O)N(SC(Cl)(Cl)Cl)C1=O (stereo not drawn)
inactive: dose: 12.5 mg/kg/injection, schedule: Q01DX009 (ip), vehicle: saline with Tween-80 103 % of control | dose: 25.0 mg/kg/injection, schedule: Q01DX009 (ip), vehicle: saline with Tween-80 92 % of control | dose: 50.0 mg/kg/injection, schedule: Q01DX009 (ip), vehicle: saline with Tween-80 101 % of control and 106 % of control

COC(=O)C(C(C)C)N(C)C(=O)OC(C)(C)C (stereo not drawn)
inactive: dose: 100.0 mg/kg/injection, schedule: Q01DX001 (ip), vehicle: other 104 % of control | dose: 200.0 mg/kg/injection, schedule: Q01DX001 (ip), vehicle: other 102 % of control | dose: 400.0 mg/kg/injection, schedule: Q01DX001 (ip), vehicle: other 100 % of control

COC1OC2COC(c3ccccc3)OC2C(O)C1N (stereo not drawn)
inactive: dose: 50.0 mg/kg/injection, schedule: Q04DX003 (ip), vehicle: saline with Tween-80 93 % of control | [13] 98 % of control

Oc1c2ccccc2cc2cnc3ccccc3c12
inactive: [21] 107 % of control | [22] 103 % of control | [23] 94 % of control

CN(C)[C](=O)[Pb]([c]1ccccc1)([c]1ccccc1)[c]1ccccc1
inactive: dose: 100.0 mg/kg/injection, schedule: Q04DX002 (ip), vehicle: saline with Tween-80 98 % of control | dose: 200.0 mg/kg/injection, schedule: Q04DX002 (ip), vehicle: saline with Tween-80 98 % of control

Cc1ccc(NC(=O)OCCOc2cc(C)c(Cl)c(C)c2)c([N+](=O)[O-])c1
inactive: dose: 50.0 mg/kg/injection, schedule: Q01DX009 (ip), vehicle: Klucel (hydroxypropylcellulose) (HPC) 95 % of control | [7] 95 % of control | [8] 90 % of control | [9] 91 % of control | [10] 97 % of control | [11] 92 % of control

NCCS(=O)c1ccccc1 (stereo not drawn)
inactive: [2] 96 % of control | [4] 96 % of control | [6] 113 % of control

COC(=O)C1C2OC(C3OC32)C1C(=O)OC (stereo not drawn)
inactive: [12] 103 % of control | [14] 104 % of control | [16] 95 % of control

c1ccc(C(c2cccc3ccccc23)N2CCCCC2)cc1 (stereo not drawn)
inactive: [1] 94 % of control | [13] 108 % of control | [3] 97 % of control | [15] 96 % of control | [5] 95 % of control | [17] 102 % of control
